Assay results as given in patent US7348304B1, “Fragrance material” (priority 2004, dated 2008).
Where two headings read alike, the source gives them in different places.

Columns and labels:
[1] = prior-art characterisation; cited from earlier work
[2] = Odor character / fragrance assessment of the material and fractions
[3] = Assessment of stability of the compound (olfactory assessment of stored aqueous solution); type: physicochemical
Description: 50 ml of a 250-ppb aqueous solution of the compound of the invention according to Example I was held in a covered 100 ml glass weighing bottle for seven months. Environmental conditions were ambient room light (fluorescent and indirect sunlight during daytime; dark at night) and temperature (16-26° C.). The bottle was opened approximately bi-weekly, admitting fresh air and allowing olfactory assessment of the odor strength.

subjects = test: Determination of approximate aqueous odor threshold (paired beakers, sniffing); type: in vivo; set-up: key: “X” means correct positive identification; “-” means unable to identify
Description: 2 mg of the compound of the invention according to Example I were dissolved in 1.0 ml ethanol and serial dilutions made in deionized water to give test solutions of the compound at concentrations of 100, 20, 4, and 1 ppb.
Pairs of loosely-covered beakers were presented to three subjects, one beaker containing deionized water and the other a test solution. The subjects were asked to identify the beaker containing the test solution by removing the covers and sniffing, with the following results (“X” means correct positive identification, “-” means unable to identify): […]

In the case of CCC(=O)C1CCC=CCCC=CCCC1 (centres unmarked) [1-(4,8-cyclododecadienyl)-1-propanone], the odor [1] is given as “cedarwood, amber, pepper”.

In the case of CC(=O)/C=C/[C@@H]1C(C)=CCCC1(C)C [(S)-alpha-ionone], the odor [1] is listed as “cedarwood, raspberry”.

In the case of C=C(C[C@H](C)CO)[C@H]1CC=C(C)C1(C)C [(−)-(1′R,2S)-2-methyl-4-(2′,2′,3′-trimethyl-3′-cyclopenten-1′-yl)-4-penten-1-ol], the odor [1] is listed as “sandalwood; cedar”.

For C[C@H]1C(=O)C[C@@H]2[C@@H]3[C@H]1[C@@]2(C)CCCC3(C)C [The C-9 epimer, (1R,2S,7R,8R,9R)-2,6,6,9-tetramethyltricyclo-[5.4.0.0^2,8]undecan-10-one, reference compound], the odor character [2] was “no distinctive or useful fragrance properties”.

For CC1CCC2C(C)(C)C3CC12CC1OC13C (centres unmarked) [cedrene epoxide], the odor [1] is given as “woody-amber-camphor”.

For CC(=O)O[C@]1(C)CC[C@@]23C[C@@H]1C(C)(C)[C@@H]2CC[C@H]3C [cedryl acetate], the odor [1] is given as “woody-vetiver”.

In the case of CO[C@@]1(C)CC[C@@]23C[C@@H]1C(C)(C)[C@@H]2CC[C@H]3C [methyl cedryl ether], the odor [1] is given as “woody-amber”.

In the case of CC(=O)C1=C(C)[C@@H]2C[C@@]3(C1)[C@H](C)CC[C@H]3C2(C)C [methyl cedryl ketone], the odor [1] is listed as “musk-woody”.

For C[C@@H]1C(=O)C[C@@H]2[C@@H]3[C@H]1[C@@]2(C)CCCC3(C)C [the compound of the invention, (1R,2S,7R,8R,9S)-2,6,6,9-tetramethyltricyclo[5.4.0.0^2,8]undecan-10-one], the “odor intensity after storage” value ([3]; 250-ppb aqueous solution, seven months, ambient room light, 16-26° C., opened approximately bi-weekly) was “No decrease in odor intensity”, the stability ([3]; action of light, oxygen, and moisture) was “stable against the action of light, oxygen, and moisture” and the odor character ([2]; listed as Example III) was “Cedar, woody, cigar box, tobacco, slightly animal—civet. Long-lasting in dry-down”. For the same compound, the odor character ([2]; listed as The compound) was “intense, pleasant and characteristic cedar wood odor”, the “identification of the beaker containing the test solution” value (“identification” below) (subjects; 1 ppb in deionized water, Subject 3) was “X” and the “identification” value (subjects; 4 ppb in deionized water, Subject 1) was “X”. For the same compound, the “identification” value (subjects; 4 ppb in deionized water, Subject 3) was “X”, the “identification” value (subjects; 20 ppb in deionized water, Subject 1) was “X” and the “identification” value (subjects; 20 ppb in deionized water, Subject 3) was “X”. For the same compound, the “identification” value (subjects; 100 ppb in deionized water, Subject 1) was “X”, the “identification” value (subjects; 100 ppb in deionized water, Subject 2) was “X” and the “identification” value (subjects; 100 ppb in deionized water, Subject 3) was “X”.
